From US7064120B2, “Tricyclic pyridyl carboxamides and derivatives thereof tocolytic oxytocin receptor antagonists” (Wyeth, priority 2001, dated 2006)

Molecular target: T1, human vasopressin V1a receptor subtype (Homo sapiens, UniProt P37288)
T1 construct: host or cells: CHO cells, stably transfected (pZeoSV vector for the Thibonnier line)
Assay: Vasopressin binding in CHO cell membranes expressing human vasopressin V1a subtype receptors ([3H]Manning ligand radioligand binding)
Conditions: 100 nM
Procedure, shortened: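 Membranes from CHO cells expressing human V1a, 25–50 μg protein/well, incubated 60 min at room temperature with [3H]Manning ligand (20 μL of 8 nM stock) in 50 mM Tris-HCl pH 7.4 with BSA, MgCl2 and protease inhibitors. Filtration then scintillation counting; reported as % inhibition or IC50 (nM).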

T1 sequence (P37288 whole entry): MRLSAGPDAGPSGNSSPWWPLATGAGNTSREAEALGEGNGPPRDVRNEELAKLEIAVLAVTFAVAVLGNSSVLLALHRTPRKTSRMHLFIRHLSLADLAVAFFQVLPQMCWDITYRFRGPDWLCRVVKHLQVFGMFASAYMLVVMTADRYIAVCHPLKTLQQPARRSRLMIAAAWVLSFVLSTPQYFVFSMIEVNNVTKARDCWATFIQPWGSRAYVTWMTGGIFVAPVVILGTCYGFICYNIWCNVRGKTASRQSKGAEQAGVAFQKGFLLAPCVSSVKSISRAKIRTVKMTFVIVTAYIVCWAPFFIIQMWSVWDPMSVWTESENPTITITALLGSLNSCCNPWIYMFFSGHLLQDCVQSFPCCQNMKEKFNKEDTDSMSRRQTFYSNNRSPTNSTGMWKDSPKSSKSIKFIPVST

SMILES	inhibition at 0.1 µM
COc1ccccc1-c1ccc(C(=O)N2Cc3ccc(C(=O)NCc4cccnc4)n3Cc3ccccc32)cc1C [Example 36, 10-[(2′-Methoxy-2-methyl-[1,1′-biphenyl]-4-yl)carbonyl]-N-(3-pyridinylmethyl)-10,11-dihydro-5H-pyrrolo[2,1-c][1,4]benzodiazepine-3-carboxamide]	-3%
COc1cc(-c2ccccc2C)c(Cl)cc1C(=O)N1Cc2ccc(C(=O)NCc3cccnc3)n2Cc2ccccc21 [Example 42, 10-[(6-Chloro-3-methoxy-2′-methyl-[1,1′-biphenyl]-4-yl)carbonyl]-N-(3-pyridinylmethyl)-10,11-dihydro-5H-pyrrolo[2,1-c][1,4]benzodiazepine-3-carboxamide]	-11%
COc1ccccc1-c1ccc(C(=O)N2Cc3ccc(C(=O)NCc4cccnc4)n3Cc3ccccc32)cc1OC [Example 45, 10-[(2,2′-Dimethoxy-[1,1′-biphenyl]-4-yl)carbonyl]-N-(3-pyridinylmethyl)-10,11-dihydro-5H-pyrrolo[2,1-c][1,4]benzodiazepine-3-carboxamide]	5%
Cc1ccccc1-c1ccc(C(=O)N2Cc3ccc(C(=O)NCc4cccnc4)n3Cc3ccccc32)cc1 [Example 40, 10-[(2′-Methyl-[1,1′-biphenyl]-4-yl)carbonyl]-N-(3-pyridinylmethyl)-10,11-dihydro-5H-pyrrolo[2,1-c][1,4]benzodiazepine-3-carboxamide]	15%
COc1ccccc1-c1ccc(C(=O)N2Cc3ccc(C(=O)N4CCCCC4c4cccnc4)n3Cc3ccccc32)cc1OC (stereo not shown) [Example 141, {10-[(2,2′-Dimethoxy-[1,1′-biphenyl]-4-yl)carbonyl]-10,11-dihydro-5H-pyrrolo[2,1-c][1,4]benzodiazepin-3-yl}[2-(3-pyridinyl)-1-piperidinyl]methanone]	9%
COc1cccc(-c2ccc(C(=O)N3Cc4ccc(C(=O)N5CCN(c6ccncc6)CC5)n4Cc4ccccc43)cc2C)c1 [Example 115, {10-[(3′-Methoxy-2-methyl-[1,1′-biphenyl]-4-yl)carbonyl]-10,11-dihydro-5H-pyrrolo[2,1-c][1,4]benzodiazepin-3-yl}[4-(4-pyridinyl)-1-piperazinyl]methanone]	22%
COc1ccccc1-c1ccc(C(=O)N2Cc3ccc(C(=O)N(C)CCc4ccncc4)n3Cc3ccccc32)cc1 [Example 129, 10-[(2′-Methoxy-[1,1′-biphenyl]-4-yl)carbonyl]-N-methyl-N-[2-(4-pyridinyl)ethyl]-10,11-dihydro-5H-pyrrolo[2,1-c][1,4]benzodiazepine-3-carboxamide]	54%
COc1cccc(-c2ccc(C(=O)N3Cc4ccc(C(=O)N(C)CCc5ccncc5)n4Cc4ccccc43)cc2C)c1 [Example 128, 10-[(3′-Methoxy-2-methyl-[1,1′-biphenyl]-4-yl)carbonyl]-N-methyl-N-[2-(4-pyridinyl)ethyl]-10,11-dihydro-5H-pyrrolo[2,1-c][1,4]benzodiazepine-3-carboxamide]	31%
COc1ccccc1-c1ccc(C(=O)N2Cc3ccc(C(=O)N(C)CCc4ccncc4)n3Cc3ccccc32)cc1C [Example 126, 10-[(2′-Methoxy-2-methyl-[1,1′-biphenyl]-4-yl)carbonyl]-N-methyl-N-[2-(4-pyridinyl)ethyl]-10,11-dihydro-5H-pyrrolo[2,1-c][1,4]benzodiazepine-3-carboxamide]	38%
O=C(NCCc1ccccn1)c1ccc2n1Cc1ccccc1N(C(=O)c1ccc(-c3cccc4ccccc34)cc1Cl)C2 [Example 60, 10-[2-Chloro-4-(naphthalen-1-yl)benzoyl]-N-[2-(2-pyridinyl)ethyl]-10,11-dihydro-5H-pyrrolo[2,1-c][1,4]benzodiazepine-3-carboxamide]	4%
COc1ccccc1-c1ccc(C(=O)N2Cc3ccc(C(=O)NCc4ccccn4)n3Cc3ccccc32)cc1C [Example 24, 10-[(2′-Methoxy-2-methyl-[1,1′-biphenyl]-4-yl)carbonyl]-N-(2-pyridinylmethyl)-10,11-dihydro-5H-pyrrolo[2,1-c][1,4]benzodiazepine-3-carboxamide]	7%

Other lines, results leading:

inhibition at 0.1 µM	SMILES
68%	COc1cc(C(=O)N2Cc3ccc(C(=O)N(C)Cc4cccnc4)n3Cc3ccccc32)ccc1-c1ccccc1C [Example 106, 10-[(2-Methoxy-2′-methyl-[1,1′-biphenyl]-4-yl)carbonyl]-N-methyl-N-(3-pyridinylmethyl)-10,11-dihydro-5H-pyrrolo[2,1-c][1,4]benzodiazepine-3-carboxamide]
20%	COc1cc(C(=O)N2Cc3ccc(C(=O)NCc4cccnc4)n3Cc3ccccc32)ccc1-c1ccccc1C [Example 41, 10-[(2-Methoxy-2′-methyl-[1,1′-biphenyl]-4-yl)carbonyl]-N-(3-pyridinylmethyl)-10,11-dihydro-5H-pyrrolo[2,1-c][1,4]benzodiazepine-3-carboxamide]
1%	Cc1ccccc1-c1ccc(C(=O)N2Cc3ccc(C(=O)N4CCN(c5ccncc5)CC4)n3Cc3ccccc32)cc1 [Example 117, {10-[(2′-Methyl-[1,1′-biphenyl]-4-yl)carbonyl]-10,11-dihydro-5H-pyrrolo[2,1-c][1,4]benzodiazepin-3-yl}[4-(4-pyridinyl)-1-piperazinyl]methanone]
1%	COc1ccccc1-c1ccc(C(=O)N2Cc3ccc(C(=O)NCCc4ccccn4)n3Cc3ccccc32)cc1C [Example 49, 10-[(2′-Methoxy-2-methyl-[1,1′-biphenyl]-4-yl)carbonyl]-N-[2-(2-pyridinyl)ethyl]-10,11-dihydro-5H-pyrrolo[2,1-c][1,4]benzodiazepine-3-carboxamide]
-6%	COc1cccc(-c2cc(OC)c(C(=O)N3Cc4ccc(C(=O)NCc5cccnc5)n4Cc4ccccc43)cc2Cl)c1 [Example 43, 10-[(6-Chloro-3,3′-dimethoxy-[1,1′-biphenyl]-4-yl)carbonyl]-N-(3-pyridinylmethyl)-10,11-dihydro-5H-pyrrolo[2,1-c][1,4]benzodiazepine-3-carboxamide]
0%	COc1cc(-c2ccccc2C)c(Cl)cc1C(=O)N1Cc2ccc(C(=O)NCc3ccccn3)n2Cc2ccccc21 [Example 29, 10-[(6-Chloro-3-methoxy-2′-methyl-[1,1′-biphenyl]-4-yl)carbonyl]-N-(2-pyridinylmethyl)-10,11-dihydro-5H-pyrrolo[2,1-c][1,4]benzodiazepine-3-carboxamide]
10%	COc1ccccc1-c1ccc(C(=O)N2Cc3ccc(C(=O)NCc4cccnc4)n3Cc3ccccc32)cc1 [Example 39, 10-[(2′-Methoxy-[1,1′-biphenyl]-4-yl)carbonyl]-N-(3-pyridinylmethyl)-10,11-dihydro-5H-pyrrolo[2,1-c][1,4]benzodiazepine-3-carboxamide]
0%	COc1cccc(-c2ccc(C(=O)N3Cc4ccc(C(=O)NCc5cccnc5)n4Cc4ccccc43)cc2C)c1 [Example 38, 10-[(3′-Methoxy-2-methyl-[1,1′-biphenyl]-4-yl)carbonyl]-N-(3-pyridinylmethyl)-10,11-dihydro-5H-pyrrolo[2,1-c][1,4]benzodiazepine-3-carboxamide]
